Source: ChEMBL document CHEMBL1201862, “PubChem BioAssay data set” (2004)
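Interpolation was linear, between the two tested concentrations surrounding the appropriate level; five concentrations were tested over 48 hours in 96-well plates. GI50 = concentration required for 50% inhibition of growth.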 Activity calls are given as the source filed them. No stated cut-off is given here; in the data, active = GI50 up to about 1.1 µM and inactive = higher.

How the values were obtained:
Test in all cases: inhibition of tumour cell growth, NCI panel, 48 h
SW-620 = tested on: SW-620
UACC-62 = tested on: UACC-62
SNB-75 = tested on: SNB-75
HT-29 = tested on: HT-29
SF-539 = tested on: SF-539
EKVX = tested on: EKVX
SF-268 = tested on: SF-268
HCT-116 = tested on: HCT-116
Hs-578T = tested on: Hs-578T
SK-OV-3 = tested on: SK-OV-3
NCI-H460 = tested on: NCI-H460
RPMI-8226 = tested on: RPMI-8226
HOP-62 = tested on: HOP-62
NCI-H522 = tested on: NCI-H522
HL-60 = tested on: HL-60
PC-3 = tested on: PC-3
SK-MEL-5 = tested on: SK-MEL-5
SK-MEL-2 = tested on: SK-MEL-2
NCI-H23 = tested on: NCI-H23
ACHN = tested on: ACHN
HCC 2998 = tested on: HCC 2998
MDA-MB-231 = tested on: MDA-MB-231
786-0 = tested on: 786-0
CCRF-CEM = tested on: CCRF-CEM
M14 = tested on: M14
A498 = tested on: A498
U-251 = tested on: U-251
OVCAR-4 = tested on: OVCAR-4
NCI/ADR-RES = tested on: NCI/ADR-RES
SN12C = tested on: SN12C
HCT-15 = tested on: HCT-15
K562 = tested on: K562
MOLT-4 = tested on: MOLT-4
SNB-19 = tested on: SNB-19
MDA-N = tested on: MDA-N
OVCAR-3 = tested on: OVCAR-3
UO-31 = tested on: UO-31
HOP-92 = tested on: HOP-92
COLO 205 = tested on: COLO 205
SK-MEL-28 = tested on: SK-MEL-28
A549 = tested on: A549
T47D = tested on: T47D
Malme-3M = tested on: Malme-3M
NCI-H226 = tested on: NCI-H226
MDA-MB-435 = tested on: MDA-MB-435
RXF 393 = tested on: RXF 393
OVCAR-8 = tested on: OVCAR-8
OVCAR-5 = tested on: OVCAR-5
IGROV-1 = tested on: IGROV-1
UACC-257 = tested on: UACC-257
SR = tested on: SR
KM12 = tested on: KM12
MCF7 = tested on: MCF7
TK-10 = tested on: TK-10
BT-549 = tested on: BT-549
DU-145 = tested on: DU-145
LOX IMVI = tested on: LOX IMVI
SF-295 = tested on: SF-295
CAKI-1 = tested on: CAKI-1

## Cc1nc(C)c(N2CCN(S(=O)(=O)N(Cc3ccccc3)Cc3ccccc3)CC2)c(O)n1
SW-620
  GI50: > 100000 nM (inactive)
UACC-62
  GI50: 5120 nM (inactive)
SNB-75
  GI50: 5310 nM (inactive)
HT-29
  GI50: > 100000 nM (inactive)
SF-539
  GI50: 12500 nM (inactive)
EKVX
  GI50: > 60000 nM (inactive)
SF-268
  GI50: 6850 nM (inactive)
HCT-116
  GI50: 53000 nM (inactive)
Hs-578T
  GI50: 3400 nM (inactive)
SK-OV-3
  GI50: 7760 nM (inactive)
NCI-H460
  GI50: > 46900 nM (inactive)
RPMI-8226
  GI50: > 100000 nM (inactive)
HOP-62
  GI50: 9310 nM (inactive)
NCI-H522
  GI50: 4850 nM (inactive)
HL-60
  GI50: > 100000 nM (inactive)
PC-3
  GI50: 41800 nM (inactive)
SK-MEL-5
  GI50: > 100000 nM (inactive)
SK-MEL-2
  GI50: 26700 nM (inactive)
NCI-H23
  GI50: 14300 nM (inactive)
ACHN
  GI50: 28600 nM (inactive)
HCC 2998
  GI50: > 100000 nM (inactive)
MDA-MB-231
  GI50: > 35700 nM (inactive)
786-0
  GI50: 6640 nM (inactive)
CCRF-CEM
  GI50: > 100000 nM (inactive)
M14
  GI50: > 100000 nM (inactive)
A498
  GI50: > 51900 nM (inactive)
U-251
  GI50: 5210 nM (inactive)
OVCAR-4
  GI50: 836 nM (active)
NCI/ADR-RES
  GI50: > 61400 nM (inactive)
SN12C
  GI50: > 100000 nM (inactive)
HCT-15
  GI50: > 100000 nM
K562
  GI50: > 100000 nM (inactive)
MOLT-4
  GI50: > 100000 nM (inactive)
SNB-19
  GI50: 8910 nM (inactive)
MDA-N
  GI50: > 100000 nM (inactive)
OVCAR-3
  GI50: 52800 nM (inactive)
UO-31
  GI50: > 100000 nM (inactive)
HOP-92
  GI50: 9730 nM (inactive)
COLO 205
  GI50: > 100000 nM (inactive)
SK-MEL-28
  GI50: > 100000 nM (inactive)
A549
  GI50: > 100000 nM (inactive)
T47D
  GI50: 24100 nM (inactive)
Malme-3M
  GI50: > 100000 nM (inactive)
NCI-H226
  GI50: 279 nM (active)
MDA-MB-435
  GI50: > 100000 nM (inactive)
RXF 393
  GI50: 11200 nM (inactive)
OVCAR-8
  GI50: 4780 nM (inactive)
OVCAR-5
  GI50: 29200 nM (inactive)
IGROV-1
  GI50: 16800 nM (inactive)
UACC-257
  GI50: > 100000 nM (inactive)
SR
  GI50: > 100000 nM (inactive)
KM12
  GI50: > 100000 nM (inactive)
MCF7
  GI50: > 43600 nM (inactive)
TK-10
  GI50: 33600 nM (inactive)
BT-549
  GI50: > 57400 nM (inactive)
DU-145
  GI50: > 59400 nM (inactive)
LOX IMVI
  GI50: 43500 nM (inactive)
SF-295
  GI50: 18700 nM (inactive)

## O=C(C[n+]1ccc2ccccc2c1)c1ccc2ccc3ccccc3c2c1
CAKI-1
  GI50: 4900 nM (inactive)
SW-620
  GI50: 1310 nM (inactive)
UACC-62
  GI50: 2990 nM (inactive)
SNB-75
  GI50: 5850 nM (inactive)
HT-29
  GI50: 1030 nM (active)
SF-539
  GI50: 483 nM (active)
EKVX
  GI50: 6270 nM (inactive)
SF-268
  GI50: 4520 nM (inactive)
HCT-116
  GI50: 959 nM (active)
Hs-578T
  GI50: 8320 nM (inactive)
SK-OV-3
  GI50: 6820 nM (inactive)
NCI-H460
  GI50: 741 nM (active)
RPMI-8226
  GI50: 129 nM (active)
HOP-62
  GI50: 5940 nM (inactive)
NCI-H522
  GI50: 6380 nM (inactive)
PC-3
  GI50: 2840 nM (inactive)
SK-MEL-5
  GI50: 3030 nM (inactive)
SK-MEL-2
  GI50: 4560 nM (inactive)
NCI-H23
  GI50: 2380 nM (inactive)
ACHN
  GI50: 2220 nM (inactive)
HCC 2998
  GI50: 1660 nM (inactive)
MDA-MB-231
  GI50: 1280 nM (inactive)
786-0
  GI50: 1670 nM (inactive)
CCRF-CEM
  GI50: 815 nM (active)
M14
  GI50: 2220 nM (inactive)
A498
  GI50: 4940 nM (inactive)
U-251
  GI50: 2210 nM (inactive)
OVCAR-4
  GI50: 3840 nM (inactive)
NCI/ADR-RES
  GI50: 15200 nM (inactive)
SN12C
  GI50: 1910 nM (inactive)
HCT-15
  GI50: 5070 nM
K562
  GI50: 151 nM (active)
SNB-19
  GI50: 2600 nM (inactive)
MDA-N
  GI50: 647 nM (active)
OVCAR-3
  GI50: 4150 nM (inactive)
UO-31
  GI50: 4690 nM (inactive)
HOP-92
  GI50: 1620 nM (inactive)
COLO 205
  GI50: 1070 nM (active)
SK-MEL-28
  GI50: 2120 nM (inactive)
A549
  GI50: 3230 nM (inactive)
T47D
  GI50: 4740 nM (inactive)
Malme-3M
  GI50: 7710 nM (inactive)
NCI-H226
  GI50: 7940 nM (inactive)
MDA-MB-435
  GI50: 841 nM (active)
RXF 393
  GI50: 5020 nM (inactive)
OVCAR-8
  GI50: 3210 nM (inactive)
OVCAR-5
  GI50: 5070 nM (inactive)
IGROV-1
  GI50: 2230 nM (inactive)
UACC-257
  GI50: 2040 nM (inactive)
SR
  GI50: 406 nM (active)
KM12
  GI50: 1330 nM (inactive)
MCF7
  GI50: 2390 nM (inactive)
TK-10
  GI50: 1400 nM (inactive)
BT-549
  GI50: 11200 nM (inactive)
DU-145
  GI50: 6190 nM (inactive)
LOX IMVI
  GI50: 1080 nM (active)
SF-295
  GI50: 824 nM (active)

## CC(=O)c1cc2c(s1)C(=O)c1scc(C(C)=O)c1C2=O
CAKI-1
  GI50: 929 nM (active)
SW-620
  GI50: 394 nM (active)
UACC-62
  GI50: 260 nM (active)
SNB-75
  GI50: 598 nM (active)
HT-29
  GI50: 1810 nM (inactive)
SF-539
  GI50: 1210 nM (inactive)
EKVX
  GI50: 485 nM (active)
SF-268
  GI50: 319 nM (active)
HCT-116
  GI50: 293 nM (active)
Hs-578T
  GI50: 279 nM (active)
SK-OV-3
  GI50: 1960 nM (inactive)
NCI-H460
  GI50: 345 nM (active)
RPMI-8226
  GI50: 209 nM (active)
HOP-62
  GI50: 467 nM (active)
NCI-H522
  GI50: 378 nM (active)
PC-3
  GI50: 605 nM (active)
SK-MEL-5
  GI50: 327 nM (active)
SK-MEL-2
  GI50: 586 nM (active)
NCI-H23
  GI50: 432 nM (active)
ACHN
  GI50: 248 nM (active)
HCC 2998
  GI50: 1980 nM (inactive)
MDA-MB-231
  GI50: 225 nM (active)
786-0
  GI50: 724 nM (active)
CCRF-CEM
  GI50: 235 nM (active)
M14
  GI50: 736 nM (active)
A498
  GI50: 2340 nM (inactive)
U-251
  GI50: 228 nM (active)
OVCAR-4
  GI50: 197 nM (active)
NCI/ADR-RES
  GI50: 240 nM (active)
SN12C
  GI50: 273 nM (active)
HCT-15
  GI50: 308 nM
K562
  GI50: 272 nM (active)
SNB-19
  GI50: 1150 nM (inactive)
MDA-N
  GI50: 198 nM (active)
OVCAR-3
  GI50: 73.8 nM (active)
UO-31
  GI50: 455 nM (active)
HOP-92
  GI50: 318 nM (active)
COLO 205
  GI50: 1970 nM (inactive)
SK-MEL-28
  GI50: 673 nM (active)
A549
  GI50: 1410 nM (inactive)
T47D
  GI50: 254 nM (active)
Malme-3M
  GI50: 385 nM (active)
NCI-H226
  GI50: 1690 nM (inactive)
MDA-MB-435
  GI50: 224 nM (active)
RXF 393
  GI50: 348 nM (active)
OVCAR-8
  GI50: 230 nM (active)
OVCAR-5
  GI50: 1570 nM (inactive)
IGROV-1
  GI50: 514 nM (active)
UACC-257
  GI50: 223 nM (active)
SR
  GI50: 107 nM (active)
KM12
  GI50: 1390 nM (inactive)
MCF7
  GI50: 163 nM (active)
TK-10
  GI50: 3520 nM (inactive)
BT-549
  GI50: 1120 nM (active)
DU-145
  GI50: 1520 nM (inactive)
LOX IMVI
  GI50: 71.1 nM (active)
SF-295
  GI50: 883 nM (active)
